Legend:
KRas^Q61H = KRas^Q61H (Homo sapiens, UniProt P01116, Q61H); assay: biochemical
Description: (§1) The ability of a compound to bind to KRas was measured using a TR-FRET displacement assay. […] After a 60-minute incubation at room temperature, the reaction was measured using a BMG LABTECH CLARIO star Plus via TR-FRET. […] The POC values were fit to a 4-parameter IC50 equation and the IC50 value reported.

KRas^G12R = target: T1, KRas^G12R (Homo sapiens, UniProt P01116, G12R); assay: KRas binding assay (TR-FRET displacement of Cy5 labelled tracer)
T1 construct: […]; biotin (biotinylated); purchased Accelegan Inc
Description: as §1

KRas^G12V = target: T2, KRas^G12V (Homo sapiens, UniProt P01116, G12V); assay: as above
T2 construct: […]; biotin (biotinylated); purchased Accelegan Inc
Description: as §1

KRas^G12C = KRas^G12C (Homo sapiens, UniProt P01116, G12C); assay: biochemical
KRas^G12C, sequence (P01116 1-169 isoform P01116-2 G12C): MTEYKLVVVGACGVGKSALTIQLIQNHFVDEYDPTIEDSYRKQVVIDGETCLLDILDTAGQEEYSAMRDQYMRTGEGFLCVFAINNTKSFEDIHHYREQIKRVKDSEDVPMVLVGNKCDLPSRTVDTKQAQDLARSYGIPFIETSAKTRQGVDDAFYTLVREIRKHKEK
Description: as §1

KRas^G12S = target: T3, KRas^G12S (Homo sapiens, UniProt P01116, G12S); assay: KRas binding assay (TR-FRET displacement of Cy5 labelled tracer)
T3 construct: […]; biotin (biotinylated); purchased Accelegan Inc
T3 sequence (P01116 1-169 isoform P01116-2 G12S): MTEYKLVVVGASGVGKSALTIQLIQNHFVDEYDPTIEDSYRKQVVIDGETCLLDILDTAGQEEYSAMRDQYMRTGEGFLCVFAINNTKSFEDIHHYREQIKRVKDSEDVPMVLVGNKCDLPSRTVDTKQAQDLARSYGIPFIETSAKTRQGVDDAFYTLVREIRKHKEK
Description: as §1

KRas^G13D = KRas^G13D (Homo sapiens, UniProt P01116, G13D); assay: biochemical
KRas^G13D, sequence (P01116 1-169 isoform P01116-2 G13D): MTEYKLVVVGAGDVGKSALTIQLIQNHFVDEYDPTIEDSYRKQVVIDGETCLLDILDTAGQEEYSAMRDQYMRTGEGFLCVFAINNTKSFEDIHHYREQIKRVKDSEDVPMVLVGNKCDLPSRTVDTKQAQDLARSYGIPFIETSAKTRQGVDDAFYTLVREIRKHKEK
Description: as §1

KRas^WT = target: T4, KRas^WT (Homo sapiens, UniProt P01116); assay: KRas binding assay (TR-FRET displacement of Cy5 labelled tracer)
T4 construct: […]; biotin (biotinylated); purchased Accelegan Inc
T4 sequence (P01116 1-169 isoform P01116-2): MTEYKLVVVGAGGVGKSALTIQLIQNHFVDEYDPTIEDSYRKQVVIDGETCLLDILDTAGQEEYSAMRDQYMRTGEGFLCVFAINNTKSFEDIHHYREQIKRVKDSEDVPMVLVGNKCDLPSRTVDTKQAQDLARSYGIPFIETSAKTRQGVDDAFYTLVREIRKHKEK
Description: as §1

KRas^G12D = target: T5, KRas^G12D (Homo sapiens, UniProt P01116, G12D); assay: as above
T5 construct: […]; biotin (biotinylated); purchased Accelegan Inc
T5 sequence (P01116 1-169 isoform P01116-2 G12D): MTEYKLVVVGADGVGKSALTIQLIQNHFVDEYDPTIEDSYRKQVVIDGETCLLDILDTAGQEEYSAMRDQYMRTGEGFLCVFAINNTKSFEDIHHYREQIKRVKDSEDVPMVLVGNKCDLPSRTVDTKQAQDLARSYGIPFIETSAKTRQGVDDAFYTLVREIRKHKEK
Description: as §1

KRas^G12A = target: T6, KRas^G12A (Homo sapiens, UniProt P01116, G12A); assay: as above
T6 construct: […]; biotin (biotinylated); purchased Accelegan Inc
T6 sequence (P01116 1-169 isoform P01116-2 G12A): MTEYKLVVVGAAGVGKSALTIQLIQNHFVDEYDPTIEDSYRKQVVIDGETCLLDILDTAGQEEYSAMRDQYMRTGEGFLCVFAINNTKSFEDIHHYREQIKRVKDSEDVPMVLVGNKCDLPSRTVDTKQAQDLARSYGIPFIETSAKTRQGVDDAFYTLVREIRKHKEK
Description: as §1

T1 sequence (P01116 1-169 isoform P01116-2 G12R): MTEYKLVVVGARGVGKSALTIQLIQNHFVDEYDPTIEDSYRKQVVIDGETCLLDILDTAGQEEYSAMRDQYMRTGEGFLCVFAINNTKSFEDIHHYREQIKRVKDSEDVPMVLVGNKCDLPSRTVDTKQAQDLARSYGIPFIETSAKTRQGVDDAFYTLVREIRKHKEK
KRas^Q61H, sequence (P01116 1-169 isoform P01116-2 Q61H): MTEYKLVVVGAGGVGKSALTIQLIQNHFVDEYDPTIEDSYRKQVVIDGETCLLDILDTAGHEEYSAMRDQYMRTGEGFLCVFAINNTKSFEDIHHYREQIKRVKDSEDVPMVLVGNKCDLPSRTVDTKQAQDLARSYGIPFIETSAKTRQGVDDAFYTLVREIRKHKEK
T2 sequence (P01116 1-169 isoform P01116-2 G12V): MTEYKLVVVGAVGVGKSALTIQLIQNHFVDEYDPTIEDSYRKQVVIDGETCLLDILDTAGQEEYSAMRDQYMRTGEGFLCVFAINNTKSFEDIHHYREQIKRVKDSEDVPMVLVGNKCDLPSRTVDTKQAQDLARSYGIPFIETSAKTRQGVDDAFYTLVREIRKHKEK

Row | SMILES | IC50 (KRas^Q61H) | IC50 (KRas^G12R) | IC50 (KRas^G12V) | IC50 (KRas^G12C) | IC50 (KRas^G12S) | IC50 (KRas^G13D) | IC50 (KRas^WT) | IC50 (KRas^G12D) | IC50 (KRas^G12A)
1 | CCc1cccc2cccc(N3CCc4c(nc(OCC56CCCN5CCC6)nc4NCc4nc5ncccc5o4)C3)c12 [Example 157, 7-(8-ethylnaphthalen-1-yl)-N-(oxazolo[4,5-b]pyridin-2-ylmethyl)-2-((tetrahydro-1H-pyrrolizin-7a(5H)-yl)methoxy)-5,6,7,8-tetrahydropyrido[3,4-d]pyrimidin-4-amine] | 19900 nM | 9040 nM | 1950 nM | 7020 nM | 10600 nM | 15500 nM | 17300 nM | 6300 nM | 24300 nM
2 | CCc1cccc2cccc(N3CCc4c(nc(OCC56CCCN5CCC6)nc4N4C[C@@H](C)C[C@@H](O)C4)C3)c12 [Example 111, (3R,5S)-1-(7-(8-ethylnaphthalen-1-yl)-2-((tetrahydro-1H-pyrrolizin-7a(5H)-yl)methoxy)-5,6,7,8-tetrahydropyrido[3,4-d]pyrimidin-4-yl)-5-methylpiperidin-3-ol] | 513 nM | 546 nM | 404 nM | 417 nM | 486 nM | 544 nM | 411 nM | 602 nM | 440 nM
3 | CCc1cccc2cccc(N3CCc4c(nc(OCC56CCCN5CCC6)nc4N4CCCC(n5nccn5)C4)C3)c12 (stereo not drawn) [Example 132, 4-(3-(2H-1,2,3-triazol-2-yl)piperidin-1-yl)-7-(8-ethylnaphthalen-1-yl)-2-((tetrahydro-1H-pyrrolizin-7a(5H)-yl)methoxy)-5,6,7,8-tetrahydropyrido[3,4-d]pyrimidine] | 1720 nM | 775 nM | 1640 nM | 1320 nM | 1660 nM | 1450 nM | 1430 nM | 3900 nM | 1180 nM
4 | CCc1cccc2cccc(N3CCc4c(nc(OCC56CCCN5CCC6)nc4N4CC5CNC(=O)C5C4)C3)c12 (stereo not drawn) [Example 52, 5-(7-(8-ethylnaphthalen-1-yl)-2-((hexahydro-1H-pyrrolizin-7a-yl)methoxy)-5,6,7,8-tetrahydropyrido[3,4-d]pyrimidin-4-yl)hexahydropyrrolo[3,4-c]pyrrol-1(2H)-one] | 1420 nM | 723 nM | 348 nM | 662 nM | 584 nM | 1150 nM | 2220 nM | 1230 nM | 1270 nM
5 | CCc1cccc2cccc(N3CCc4c(nc(OCC56CCCN5CCC6)nc4N4Cc5ccnn5CC(O)C4)C3)c12 (stereo not drawn) [Example 50, 5-(7-(8-ethylnaphthalen-1-yl)-2-((hexahydro-1H-pyrrolizin-7a-yl)methoxy)-5,6,7,8-tetrahydropyrido[3,4-d]pyrimidin-4-yl)-5,6,7,8-tetrahydro-4H-pyrazolo[1,5-a][1,4]diazepin-7-ol] | 808 nM | 284 nM | 342 nM | 299 nM | 330 nM | 800 nM | 613 nM | 219 nM | 569 nM
6 | CCc1cccc2cccc(N3CCc4c(nc(OCC56CCCN5CCC6)nc4N4CCCC5(CC(=O)N5)C4)C3)c12 (stereo not drawn) [Example 16, 6-(7-(8-ethylnaphthalen-1-yl)-2-((hexahydro-1H-pyrrolizin-7a-yl)methoxy)-5,6,7,8-tetrahydropyrido[3,4-d]pyrimidin-4-yl)-1,6-diazaspiro[3.5]nonan-2-one] | 55 nM | 28 nM | 18 nM | 37 nM | 45 nM | 65 nM | 66 nM | 63 nM | 45 nM
7 | CCc1cccc2cccc(N3CCc4c(nc(OCC56CCCN5CCC6)nc4N4CCCC(c5ccn(C)n5)C4)C3)c12 (stereo not drawn) [Example 100, 7-(8-ethylnaphthalen-1-yl)-4-(3-(1-methyl-1H-pyrazol-3-yl)piperidin-1-yl)-2-((tetrahydro-1H-pyrrolizin-7a(5H)-yl)methoxy)-5,6,7,8-tetrahydropyrido[3,4-d]pyrimidine] | 1400 nM | 339 nM | 2030 nM | 828 nM | 1430 nM | 1370 nM | 1140 nM | 4420 nM | 1010 nM
8 | CCc1cccc2cccc(N3CCc4c(nc(OCC56CCCN5CCC6)nc4N4CCCC(c5ccno5)C4)C3)c12 (stereo not drawn) [Example 99, 5-(1-(7-(8-ethylnaphthalen-1-yl)-2-((tetrahydro-1H-pyrrolizin-7a(5H)-yl)methoxy)-5,6,7,8-tetrahydropyrido[3,4-d]pyrimidin-4-yl)piperidin-3-yl)isoxazole] | 1130 nM | 338 nM | 958 nM | 1000 nM | 1250 nM | 1560 nM | 1240 nM | 3010 nM | 1250 nM
9 | CCc1cccc2cccc(N3CCc4c(nc(OCC56CCCN5CCC6)nc4NCCNS(N)(=O)=O)C3)c12 [Example 160, N-(2-((7-(8-ethylnaphthalen-1-yl)-2-((tetrahydro-1H-pyrrolizin-7a(5H)-yl)methoxy)-5,6,7,8-tetrahydropyrido[3,4-d]pyrimidin-4-yl)amino)ethyl)sulfamide] | 11000 nM | 7650 nM | 2560 nM | 4240 nM | 6740 nM | 10000 nM | 8740 nM | 4440 nM | 9260 nM
10 | CCc1cccc2cccc(N3CCc4c(nc(OCC56CCCN5CCC6)nc4NCCS(=O)(=O)N=S(C)(C)=O)C3)c12 [Example 165, N-(dimethyl(oxo)-16-sulfaneylidene)-2-((7-(8-ethylnaphthalen-1-yl)-2-((tetrahydro-1H-pyrrolizin-7a(5H)-yl)methoxy)-5,6,7,8-tetrahydropyrido[3,4-d]pyrimidin-4-yl)amino)ethane-1-sulfonamide] | 6550 nM | 7470 nM | 4340 nM | 3870 nM | 8070 nM | 6710 nM | 5920 nM | 14200 nM | 8670 nM
11 | CCc1cccc2cccc(N3CCc4c(nc(OCC56CCCN5CCC6)nc4N4CCCC(O)(C(F)(F)F)C4)C3)c12 (stereo not drawn) [Example 110, 1-(7-(8-ethylnaphthalen-1-yl)-2-((tetrahydro-1H-pyrrolizin-7a(5H)-yl)methoxy)-5,6,7,8-tetrahydropyrido[3,4-d]pyrimidin-4-yl)-3-(trifluoromethyl)piperidin-3-ol] | 491 nM | 788 nM | 566 nM | 639 nM | 551 nM | 412 nM | 400 nM | 726 nM | 595 nM
12 | CCc1cccc2cccc(N3CCc4c(nc(OCC56CCCN5CCC6)nc4N4CC(C)CC(CO)C4)C3)c12 (stereo not drawn) [Example 133, (1-(7-(8-ethylnaphthalen-1-yl)-2-((tetrahydro-1H-pyrrolizin-7a(5H)-yl)methoxy)-5,6,7,8-tetrahydropyrido[3,4-d]pyrimidin-4-yl)-5-methylpiperidin-3-yl)methanol] | 1440 nM | 781 nM | 936 nM | 871 nM | 1020 nM | 1500 nM | 1340 nM | 945 nM | 1020 nM
13 | CCc1cccc2cccc(N3CCc4c(nc(OCC56CCCN5CCC6)nc4N4CCCC5(C4)NC(=O)NC5=O)C3)c12 (stereo not drawn) [Example 12, 7-(7-(8-ethylnaphthalen-1-yl)-2-((tetrahydro-1H-pyrrolizin-7a(5H)-yl)methoxy)-5,6,7,8-tetrahydropyrido[3,4-d]pyrimidin-4-yl)-1,3,7-triazaspiro[4.5]decane-2,4-dione] | ≤ 2 nM | ≤ 2 nM | ≤ 2 nM | ≤ 2 nM | ≤ 2 nM | ≤ 2 nM | ≤ 2 nM | 3 nM | ≤ 2 nM
14 | CCc1cccc2cccc(N3CCc4c(nc(OCC56CCCN5CCC6)nc4N4CCCC(c5nnc(CO)n5C)C4)C3)c12 (stereo not drawn) [Example 166, (5-(1-(7-(8-ethylnaphthalen-1-yl)-2-((tetrahydro-1H-pyrrolizin-7a(5H)-yl)methoxy)-5,6,7,8-tetrahydropyrido[3,4-d]pyrimidin-4-yl)piperidin-3-yl)-4-methyl-4H-1,2,4-triazol-3-yl)methanol] | 4580 nM | 4650 nM | 7320 nM | 4150 nM | 5130 nM | 4800 nM | 4810 nM | 9850 nM | 5510 nM
15 | CCc1cccc2cccc(N3CCc4c(nc(OCC56CCCN5CCC6)nc4N4CCCC(n5cccn5)C4)C3)c12 (stereo not drawn) [Example 82, 4-(3-(1H-pyrazol-1-yl)piperidin-1-yl)-7-(8-ethylnaphthalen-1-yl)-2-((tetrahydro-1H-pyrrolizin-7a(5H)-yl)methoxy)-5,6,7,8-tetrahydropyrido[3,4-d]pyrimidine] | 606 nM | 291 nM | 958 nM | 475 nM | 696 nM | 552 nM | 712 nM | 1120 nM | 628 nM
16 | CCc1cccc2cccc(N3CCc4c(nc(OCC56CCCN5CCC6)nc4N4CCCCCCC4)C3)c12 [Example 54, 4-(azocan-1-yl)-7-(8-ethylnaphthalen-1-yl)-2-((hexahydro-1H-pyrrolizin-7a-yl)methoxy)-5,6,7,8-tetrahydropyrido[3,4-d]pyrimidine] | 1230 nM | 663 nM | 707 nM | 755 nM | 924 nM | 1080 nM | 943 nM | 1460 nM | 767 nM

Reference: patent publication US12421253B2 (Mirati Therapeutics, Inc., priority 2020, dated 2025)
